From article PMC6611794, “Development of a high-throughput strategy for discovery of potent analogues of antibiotic lysocin E” (Nature Communications, 2019)
Like-named read-outs stand apart in the source and are kept apart here. Where a SMILES comes first, the peptide text is derived from it. Bridges are numbered along the chain shown (N, C = ends). [ ]: non-standard residue; d: D form. The star is where a group is joined. Hexanoyl(3R-OH,5-Me) = CC(C)C[C@@H](O)CC(=O)*; dNMeF = CN[C@H](Cc1ccccc1)C(=O)O; dOrn = NCCC[C@@H](N)C(=O)O

What was measured:
[1] = Liposomal membrane disruption assay (carboxyfluorescein LUVs); format: biochemical
Experimental: Preparation of LUVs consisting of PC/PG. Carboxyfluorescein-encapsulated large unilamellar vesicles (LUVs) were prepared according to the thin-film hydration method, followed by extrusion through Nuclepore polycarbonate filters (GE Healthcare) mounted in the mini-extruder apparatus (Avanti Polar Lipids). A solution of egg yolk phosphatidylcholine (9.60 mg, 12.5 µmol) and egg yolk phosphatidylglycerol (9.78 mg, 12.5 µmol) in CHCl3 (0.505 mL) was concentrated, and dried under vacuum to form a lipid thin film. The thin film was hydrated and suspended in carboxyfluorescein-containing buffer solution [0.500 mL, 5 mM 4-(2-hydroxyethyl)-1-piperazineethanesulfonic acid (HEPES), 20 mM carboxyfluorescein, pH 7.5] by vortexing and sonication. After five -times freeze-thaw cycles, the lipid suspension was extruded 19 times through a polycarbonate filter with 0.40 µm of pore size in the diameter. The external carboxyfluorescein -containing buffer was replaced w ith a carboxyfluorescein -free buffer solution [20 mM HEPES, 1 mM ethylenediaminetetraacetic acid (EDTA), pH 7.5] through size exclusion chromatography using disposable PD-10 column (GE Healthcare). Concentration of egg yolk phosphatidylcholine was determined by using Phospholipid C-Test Wako (Fujifilm Wako Pure Chemical). The final concentration of egg yolk phosphatidylcholine was adjusted to 4.0 µM with the carboxyfluorescein-free buffer solution, and the solution was used for membrane disruption assay. […]
(§1) Membrane disruption assay. […]
(§2) to various concentrations as 5-fold serial dilutions. The solution of peptides (2 µL/well) and the carboxyfluorescein-encapsulated LUV suspension (200 µL/well) were mixed in black polystyrene flat-bottom 96-well plates. The final concentration of peptides ranged from 2970 nM to 0.950 nM. The plates were vortexed at room temperature for 30 min, and then fluorescence of carboxyfluorescein (Ex. 490 nm/Em. 517 nm) of each well was measured at room temperature on Gemini EM microplate reader. Trion X-100/H2O (5/95, 2 µL), MeOH/H2O (4/6, 2 µL), and the LUV suspension were mixed in each plate to determine 100% lysis. MeOH/H2O (4/6, 2 µL) and the LUV suspension were mixed in each plate to determine 0% lysis.
(§3) The membrane disruption activities of tested peptides (I) were normalized against 100% lysis by Triton X -100 […]
(§4) (Imax) and 0% lysis by MeOH/H2O (4/6) (I0) as following, where Ix is the fluorescence intensity (Supplementary Equation 2).
(§5) I = 100 × (Ix – I0) / (Imax – I0) (2)
(§6) The membrane-disrupting activities were evaluated as half-maximal response (EC50, nM) values by means of three replicates. Sigmoidal curve fittings were performed on R2 with drc package (Supplementary Figs S7–S9).3 Two-parameter logistic model was applied for the fitting.

[2] = Experimental: Preparation of LUVs consisting of PC/PG/MK-4 or PC/PG/UQ-10. To a solution of egg yolk phosphatidylcholine (9.48 mg, 12.4 µmol) and egg yolk phosphatidylglycerol (9.66 mg, 12.4 µmol) in CHCl3 (0.208 mL) was added a solution of MK-4 (2) or UQ-10 (3) (0.313 µmol) in CHCl3 (21.8 µL). The solution was concentrated, and dried under vacuum to for m a lipid thin film. The thin film was hydrated and suspended in carboxyfluorescein-containing buffer solution (0.500 mL, 5 mM HEPES, 20 mM carboxyfluorescein , pH 7.5) by vortexing and sonication. After five-times freeze-thaw cycles, the lipid suspension was extruded 19 times through a polycarbonate filter with 0.40 µm of pore siz e in the diameter.
The external carboxyfluorescein -containing buffer was replaced with a carboxyfluorescein -free buffer solution (20 mM HEPES, 1 mM EDTA, pH 7.5) through size exclusion chromatography using disposable PD -10 column. Concentration of egg yolk phosphatidylcholine was determined by using Phospholipid C -Test Wako.
The final concentration of egg yolk phosphatidylcholine was adjusted to 4.0 µM with the carboxyfluorescein -free buffer solution, and the solution was used for membrane disruption ass ay.
as §1, §2, §3, §4, §5, §6

[3] = 30 min, room temperature, mean ± SD of three independent experiments, read-out: EC50 PC/PG
[4] = PC/PG LUVs, 1st experiment, read-out: EC50 PC/PG 1st
[5] = PC/PG LUVs, 2nd experiment, read-out: EC50 PC/PG 2nd
[6] = PC/PG LUVs, 3rd experiment, read-out: EC50 PC/PG 3rd
[7] = read-out: EC50 PC/PG/2 1st, PC/PG/2 LUVs, 1st experiment
[8] = read-out: EC50 PC/PG/2 2nd, PC/PG/2 LUVs, 2nd experiment
[9] = read-out: EC50 PC/PG/2 3rd, PC/PG/2 LUVs, 3rd experiment
[10] = read-out: EC50 PC/PG/2, 30 min, room temperature, mean ± SD of three independent experiments

Compound | EC50 [1, 3] [nM] | EC50 [1, 4] [nM] | EC50 [1, 5] [nM] | EC50 [1, 6] [nM] | selectivity index (EC50 against PC/PG/3 divided by EC50 against PC/PG/2) [2] | EC50 [2, 7] [nM] | EC50 [2, 8] [nM] | EC50 [2, 9] [nM] | EC50 [2, 10] [nM]
CC[C@H](C)[C@@H]1NC(=O)[C@@H](Cc2c[nH]c3ccccc23)NC(=O)[C@@H](CCCN)NC(=O)[C@H](CCC(=O)O)NC(=O)[C@@H](CCCNC(=N)N)NC(=O)[C@H](CC(C)C)NC(=O)[C@@H](Cc2ccccc2)N(C)C(=O)CNC(=O)[C@H](Cc2ccc(O)cc2)NC(=O)[C@@H](CCCNC(=N)N)NC(=O)[C@@H](NC(=O)C[C@H](O)CC(C)C)[C@@H](C)OC(=O)[C@H]([C@@H](C)O)NC1=O [Peptide A7] ({Hexanoyl(3R-OH,5-Me)}-T[dR]YG[dNMeF]L[dR]E[dOrn][dW]IT; ester 1-C) | 1120 ± 200 | 1320 | 1120 | 923 | 19.7 | 24.6 | 27.8 | 14.9 | 22.4 ± 6.7
CC[C@H](C)[C@@H]1NC(=O)[C@@H](Cc2c[nH]c3ccccc23)NC(=O)[C@@H](CCCN)NC(=O)[C@H](CCC(=O)O)NC(=O)[C@@H](CCCNC(=N)N)NC(=O)[C@H](CC(C)C)NC(=O)[C@@H](Cc2ccccc2)N(C)C(=O)CNC(=O)[C@H](CC(N)=O)NC(=O)[C@@H](CCCNC(=N)N)NC(=O)[C@@H](NC(=O)C[C@H](O)CC(C)C)[C@@H](C)OC(=O)[C@H]([C@@H](C)O)NC1=O [Peptide A14] ({Hexanoyl(3R-OH,5-Me)}-T[dR]NG[dNMeF]L[dR]E[dOrn][dW]IT; ester 1-C) | > 1500 | > 1500 | > 1500 | > 1500 | > 19.7 | 118 | 79.1 | 31.9 | 76.3 ± 43.1
CC(C)C[C@@H](O)CC(=O)N[C@@H]1C(=O)N[C@H](CCCNC(=N)N)C(=O)N[C@@H](C)C(=O)NCC(=O)N(C)[C@H](Cc2ccccc2)C(=O)N[C@@H](CC(C)C)C(=O)N[C@H](CCCNC(=N)N)C(=O)N[C@@H](CCC(=O)O)C(=O)N[C@H](Cc2ccc(O)cc2)C(=O)N[C@H](Cc2c[nH]c3ccccc23)C(=O)N[C@@H](Cc2ccc(O)cc2)C(=O)N[C@@H]([C@@H](C)O)C(=O)O[C@@H]1C [Peptide A15] ({Hexanoyl(3R-OH,5-Me)}-T[dR]AG[dNMeF]L[dR]E[dY][dW]YT; ester 1-C) | 1010 ± 210 | 1260 | 889 | 895 | – | 57.6 | 39.6 | 9 | 35.4 ± 24.6
CC[C@H](C)[C@@H]1NC(=O)[C@@H](Cc2c[nH]c3ccccc23)NC(=O)[C@@H](CCCN)NC(=O)[C@H](CCC(=O)O)NC(=O)[C@@H](CCCNC(=N)N)NC(=O)[C@H](CC(C)C)NC(=O)[C@@H](Cc2ccccc2)N(C)C(=O)CNC(=O)[C@H](CC(=O)O)NC(=O)[C@@H](CCCNC(=N)N)NC(=O)[C@@H](NC(=O)C[C@H](O)CC(C)C)[C@@H](C)OC(=O)[C@H]([C@@H](C)O)NC1=O [Peptide A16] ({Hexanoyl(3R-OH,5-Me)}-T[dR]DG[dNMeF]L[dR]E[dOrn][dW]IT; ester 1-C) | > 1500 | > 1500 | > 1500 | > 1500 | 20.6 | 70.1 | 33.5 | 17.1 | 40.3 ± 27.1
CC[C@H](C)[C@@H]1NC(=O)[C@@H](Cc2c[nH]c3ccccc23)NC(=O)[C@@H](Cc2ccc(O)cc2)NC(=O)[C@H](CCC(=O)O)NC(=O)[C@@H](CCCNC(=N)N)NC(=O)[C@H](CC(C)C)NC(=O)[C@@H](Cc2ccccc2)N(C)C(=O)CNC(=O)[C@H](CC(=O)O)NC(=O)[C@@H](CCCNC(=N)N)NC(=O)[C@@H](NC(=O)C[C@H](O)CC(C)C)[C@@H](C)OC(=O)[C@H]([C@@H](C)O)NC1=O [Peptide A17] ({Hexanoyl(3R-OH,5-Me)}-T[dR]DG[dNMeF]L[dR]E[dY][dW]IT; ester 1-C) | > 1500 | > 1500 | > 1500 | > 1500 | – | 437 | 178 | 144 | 253 ± 160
